Measurements published in US12351565B2, “Aromatic compound and preparation method therefor and use thereof” (SHANGHAI JIANHE PHARMACEUTICAL & TECHNOLOGY CO. LTD., priority 2018, dated 2025).

Key:
C57 mice = assay: Forced swimming experiment, oral administration to mice; type: in vivo; conditions: inhibition of immobility time, C57 mice
In short: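 Male C57 mice (6 weeks) dosed once orally at 20 mg/kg in 0.9% NaCl, tested 1 h and 24 h later after a 10 min pre-swim the day before. Immobility over the last 4 min of a 6 min swim (water 23-25° C); inhibition rate (%) calculated against blank group at each time.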

[1] = In vivo pharmacokinetic experiment in mice; conditions: C57 mice
Description: Healthy male C57 mice were randomly divided into groups with 3 mice in each group, and the test compounds were administrated intragastrically or by intravenous injection. See Table 6 below for specific arrangements:
(§1) Each test compound was dissolved in physiological saline to prepare a certain concentration of solution for administration.
(§2) One day before administration, the mice were fasted and allowed to drink freely for 12-14 h. The mice were fed 4 h after administration.
(§3) 0.030 mL of blood was took from each animal each time through the orbit, and anticoagulated with EDTAK2. The collection time points were as follows: in PO group, 5 min, 15 min, 30 min, 1 h, 2 h, 4 h, 6 h, 8 h, 24 h after administration of test substance; in IV group, 2 min, 5 min, 15 min, 30 min, 1 h, 2 h, 4 h, 6 h, 8 h, 24 h after administration of test substance. After blood samples were collected, they were placed on ice and centrifuged to separate the plasma within 30 minutes (centrifugation conditions: 5000 rpm, 10 minutes, 4° C.). The sample were stored at −80° C. before analysis.

[2] = Distribution in mouse brain tissue; type: in vivo, C57 mice
Description: Healthy male C57 mice were randomly divided into groups with 3 mice in each group, and the test compound was administrated intragastrically. See Table 10 below for specific arrangements:
as §1, §2
After the animals were bled, the brain tissue was collected. After washing, 50% ice methanol was added for homogenate at 1:4 (m/v). The collection time points was 10 min, 15 min, 30 min, 1 h, 2 h after administration of the test substance; 30.0 μL of tissue sample was taken (the sample was taken out from the refrigerator at −80° C., vortexed for 30 seconds after natural melting at room temperature) and added into a 1.5 mL centrifuge tube. 300.0 μL internal standard solution (30 ng/mL […] acetonitrile solution) was added, the mixture was vortex for 60 seconds and then centrifuged for 3 minutes (centrifugal force was 12000 rpm); 75 μL of the supernatant was taken and transferred to 96-well injection plate loaded with equal volume of water, shaken and mixed well, and subjected to LC-MS/MS analysis, wherein injection volume was 10 μL.

[3] = In vivo pharmacokinetic experiment in rats; conditions: SD rats
Description: Healthy male SD rats were randomly divided into groups with 3 rats in each group, and the test compounds were administrated intragastrically or by intravenous injection. See Table 8 below for specific arrangements:
as §1
as §3, with “One day before administration, the rats were fasted and allowed to drink freely for 12-14 h. The rats were fed 4 h after administration. 0.030 mL” for “0.030 mL”, “anticoagulated with EDTAK2 anticoagulation. The collection” for “anticoagulated with EDTAK2. The collection”, “group, 5 min, 10 min, 15” for “group, 5 min, 15”

[4] = male, mouse, iv, 5 mg/kg i.v., plasma
[5] = male, mouse, po, 20 mg/kg p.o., plasma
[6] = male, rat, iv, 5 mg/kg i.v., plasma
[7] = male, rat, po, 20 mg/kg p.o., plasma

## Cl.N[C@]1(c2ccc(C(F)(F)F)cc2)CCC[C@H](O)C1=O [Compound 51, (2S,6S)-2-amino-6-hydroxy-2-(4-(trifluoromethyl)phenyl)cyclohexane-1-one hydrochloride]
C57 mice; forced swimming 1 h after single oral (intragastric) 20 mg/kg
  1 h inhibition rate: 66.9 ± 0.3%
C57 mice; forced swimming 24 h after single oral (intragastric) 20 mg/kg
  24 h inhibition rate: 38.6 ± 2.1%
[1]; 5 mg/kg i.v., plasma
  AUC0-t: 6471 ngh/mL
  AUC0-∞: 6567 ngh/mL
[1]; 20 mg/kg p.o. vs 5 mg/kg i.v.
  F: 68.0%
[1]; 20 mg/kg p.o., plasma
  AUC0-t: 17539 ngh/mL
  AUC0-∞: 17877 ngh/mL
[1]; [4]
  MRT: 1.23 h
  half-life: 1.79 h
[1]; male, mouse, plasma, iv, 5 mg/kg i.v.
  clearance: 13.5 mL/min/kg
[1]; male, mouse, plasma, iv, 5 mg/kg i.v., read-out: Vss
  Vd: 0.98 L/kg
[1]; [5]
  Cmax: 7520 ng/mL
  MRT: 3.59 h
  Tmax: 5 min
  half-life: 4.09 h
[2]; C57 mouse brain tissue, 20 mg/kg p.o.
  AUC0-∞: 46324 ng·h/g
[2]; male, brain, po, C57 mouse, 10 mg/kg p.o., 15 min
  concentration at 15 min: 5090 ng/g
[2]; male, brain, po, C57 mouse, 20 mg/kg p.o. (intragastrically), 10 min
  concentration at 10 min: 23500 ng/g
[2]; male, po, C57 mouse brain tissue, 20 mg/kg p.o.
  half-life: 1.36 h
[3]; 5 mg/kg i.v., plasma
  AUC0-t: 19871 ngh/mL
  AUC0-∞: 20688 ngh/mL
[3]; 20 mg/kg p.o.
  F: 86%
[3]; 20 mg/kg p.o., plasma
  AUC0-t: 68383 ngh/mL
  AUC0-∞: 70298 ngh/mL
[3]; [6]
  MRT: 6.15 h
  half-life: 5.6 h
[3]; male, rat, plasma, iv, 5 mg/kg i.v.
  clearance: 4.03 mL/min/kg
[3]; male, rat, plasma, iv, 5 mg/kg i.v., read-out: Vss
  Vd: 1.49 L/kg
[3]; [7]
  Cmax: 9350 ng/mL
  MRT: 6.21 h
  Tmax: 0.33 h
  half-life: 4.74 h
